Assay results taken from PubChem BioAssay (NCI).
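Growth conditions: 96-well plates. Treatment: test compound, 48 hours, 5 concentrations. Analysis: linear interpolation between bracketing concentrations; unreached endpoints set to highest concentration. TGI: total growth inhibition.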

How the values were obtained:
Experiment in all cases: growth of human tumour cells (NCI), 48 h
SF-295 CNS = test system: SF-295 CNS
NCI-H522 lung = test system: NCI-H522 lung
LOX IMVI melanoma = test system: LOX IMVI melanoma
COLO 205 colon = test system: COLO 205 colon
KM12 colon = test system: KM12 colon
NCI-H23 lung = test system: NCI-H23 lung
NCI-H226 lung = test system: NCI-H226 lung
SW-620 colon = test system: SW-620 colon
OVCAR-4 ovarian = test system: OVCAR-4 ovarian
UO-31 renal = test system: UO-31 renal
U251 CNS = test system: U251 CNS
SNB-75 CNS = test system: SNB-75 CNS
SK-MEL-28 melanoma = test system: SK-MEL-28 melanoma
NCI-H460 lung = test system: NCI-H460 lung
CAKI-1 renal = test system: CAKI-1 renal
RXF 393 renal = test system: RXF 393 renal
MDA-MB-231 breast = test system: MDA-MB-231 breast
HS 578T breast = test system: HS 578T breast
PC-3 prostate = test system: PC-3 prostate
T-47D breast = test system: T-47D breast

SMILES | TGI (SF-295 CNS) [µM] | TGI (NCI-H522 lung) [µM] | TGI (LOX IMVI melanoma) [µM] | TGI (COLO 205 colon) [µM] | TGI (KM12 colon) [µM] | TGI (NCI-H23 lung) [µM] | TGI (NCI-H226 lung) [µM] | TGI (SW-620 colon) [µM] | TGI (OVCAR-4 ovarian) [µM] | TGI (UO-31 renal) [µM] | TGI (U251 CNS) [µM] | TGI (SNB-75 CNS) [µM] | TGI (SK-MEL-28 melanoma) [µM] | TGI (NCI-H460 lung) [µM] | TGI (CAKI-1 renal) [µM] | TGI (RXF 393 renal) [µM] | TGI (MDA-MB-231 breast) [µM] | TGI (HS 578T breast) [µM] | TGI (PC-3 prostate) [µM] | TGI (T-47D breast) [µM]
CC(C)C(/C=C/c1ccccc1)=N\NC(=O)N/N=C(/C=C/c1ccccc1)C(C)C | > 100 | 58.6 | > 100 | 44.3 | > 100 | > 100 | 55.4 | > 100 | > 100 | 93 | > 100 | 92.5 | > 100 | 33.4 | 30.6 |  |  |  |  | 
CC(=O)c1ccc(NC(=O)/C(=N\NC(N)=O)C(C#N)CC(C)(C)C=O)cc1 (stereo not drawn) | > 100 | > 100 | > 100 | > 100 | > 100 | > 100 | > 100 | > 100 | > 100 | > 100 | > 100 | > 100 | > 100 | > 100 | > 100 | > 100 |  |  |  | 
C[C@]12CCC(=O)C=C1CC[C@@H]1[C@@H]2C(=O)C[C@@]2(C)[C@H]1CC[C@]2(O)C(=O)CO | > 100 | > 100 |  | > 100 | > 100 | > 100 | > 100 | > 100 | > 100 | > 100 | > 100 | > 100 | > 100 | > 100 | > 100 | > 100 |  |  |  | 
COc1ccc(OC)c(CNc2ccc(O)c(C(=O)NCCc3ccc(F)cc3)c2)c1 | 51.7 | 7.56 | 25.3 | 40.2 | 25.9 | > 100 |  | > 100 | 66.2 | 24.8 | 24.9 |  | 27.7 | > 100 | 87.9 |  | 21.7 | > 100 | 32.1 | 
CN(C)c1nc(N(C)C)nc(N(C)CN(C)c2nc(N(C)C)nc(N(C)C)n2)n1 | > 100 | > 100 | > 100 | > 100 | > 100 | > 100 |  | > 100 | > 100 | > 100 | > 100 | > 100 | > 100 | > 100 | > 100 | > 100 |  |  |  | 
CC(=O)Oc1ccc(OC(Oc2ccccc2)c2ccccc2)cc1 (stereo not drawn) | > 100 | 96.4 | 52.6 | > 100 | 58.7 | 47.6 | 69.7 | > 100 | > 100 | 88.9 | 35.5 | 64.4 | 69 | 49.3 | 55.7 | 57.1 | 48.8 |  | > 100 | > 100
CC(=O)Nc1ccc(-c2nnc(SCC(=O)Nc3ccccc3[N+](=O)[O-])o2)cc1 | > 100 | > 100 | > 100 | > 100 | > 100 | > 100 | > 100 | > 100 | > 100 | > 100 | > 100 | > 100 | > 100 | > 100 | > 100 | > 100 |  |  |  | 
CSC(=S)N(C)NC(=O)c1cccc(C(=O)NN(C)C(=S)SC)n1 | 16 | 40.1 | > 100 | > 100 | > 100 | > 100 | 81.5 | > 100 | 41 |  | 54.6 | 98 | > 100 | > 100 |  | 74.4 |  |  |  | 
CC(=O)c1ccc2c(c1)oc(=O)n2CCN(C)C | > 100 |  | > 100 | > 100 | > 100 | > 100 | > 100 | > 100 |  |  | > 100 | > 100 | > 100 | > 100 | > 100 | > 100 | > 100 | > 100 | > 100 | 
COC(=O)c1ccc(C)cc1C1CN=NC12Cc1cc(C)c(C)cc1C2=O (stereo not drawn) | > 100 | 78.4 | > 100 |  | > 100 | > 100 | > 100 | > 100 | > 100 | > 100 | > 100 | > 100 | > 100 | > 100 | > 100 | > 100 | 81.4 | > 100 |  | 
c1ccc([C@H]2CN3CCSC3=N2)cc1 | > 100 | > 100 | > 100 | > 100 | > 100 | > 100 | > 100 | > 100 | > 100 | > 100 | > 100 | > 100 | > 100 | > 100 | > 100 | > 100 | > 100 |  | > 100 | > 100
CC1NOC(NS(=O)(=O)c2ccc(N=Nc3c(O)c(C(=O)O)cc4ccccc34)cc2)C1C (stereo not drawn) | > 100 | > 100 |  | > 100 | > 100 |  | > 100 | > 100 | > 100 | > 100 | > 100 | > 100 | > 100 | > 100 | > 100 | > 100 | > 100 | > 100 | > 100 | 
Oc1[nH]c2ccccc2c1N=NC(=S)N1CCCCCC1 | 3.86 | 12.6 | 2.41 | 6.2 | 2.22 | 8.51 | 4.45 | 9.23 | 3.91 | 3.08 | 8.16 | 4.34 | 7.61 | 5.28 | 4.62 | 2.43 | 3.35 |  | 10.6 | 17.6
CN(N)C(=O)NCCCl | > 100 | > 100 | > 100 | > 100 | > 100 | > 100 | 6.42 | > 100 | > 100 | > 100 | > 100 | > 100 | > 100 | > 100 | > 100 | > 100 | > 100 | > 100 | > 100 | 
